Assay: Partition coefficient, log P of the compound
Format: physicochemical
Settings: octanol/water

logP	Structure (SMILES)
1.26	O=C(O)CCC(=O)Nc1ccc2c(c1)C(Nc1cccc(Br)c1)=NS2(=O)=O
2.39	CCOC(=O)C(=CNc1ccc2c(c1)C(Nc1ccc(Cl)cc1)=NS2(=O)=O)C(=O)OCC
3.64	O=C(Nc1ccc(Br)cc1)Nc1ccc(OC2=NS(=O)(=O)c3ccccc32)cc1
2.48	CCOC(=O)C(=CNc1ccc2c(c1)C(Nc1cccc(Br)c1)=NS2(=O)=O)C(=O)OCC
3.55	O=C(Nc1ccc(Cl)cc1)Nc1ccc(OC2=NS(=O)(=O)c3ccccc32)cc1
3.57	O=C(Nc1ccccc1)Nc1ccc2c(c1)C(Nc1ccc(Cl)cc1Cl)=NS2(=O)=O

Source: ChEMBL document CHEMBL2331514, “Structure-based design and synthesis of novel pseudosaccharine derivatives as antiproliferative agents and kinase inhibitors” (Eur J Med Chem, 2013)
